Measured values taken from US12421228B2 (Mirati Therapeutics, Inc., priority 2019, dated 2025).

Columns and labels:
[1] = molecular target: purified human, His-tagged PRC2 complex (Homo sapiens (Human), UniProt O75530); assay: Hot Spot HMT assay, inhibition of PRC2 enzymatic activity; assay type: biochemical; settings: 10 nM PRC2 complex, 0.05 mg/ml core histone H3, 1 μM 3H-SAM, 1 hr at 30° C.; read-out: IC50, Inhibition of PRC2-mediated Enzymatic Activity
Description: Ten-point dose-response curves for compounds of the present invention were determined using a Hot Spot HMT assay (Reaction Biology Corp; see Horiuchi et al., Assay Drug Dev Technol. (2013) 4: 227-236 doi: 10.1089/adt.2012.480). The assay uses purified human, His-tagged PRC2 complex, including N-terminal His-tagged EZH2 enzyme, N-terminal Flag-tagged embryonic ectoderm development protein (EED), N-terminal His-tagged suppressor of zeste 12 (SUZ12), N-terminal His-tagged AEBP2, and N-terminal His-tagged RbAp48. In this assay, the transfer of the tritiated methyl group from radiolabeled S-adenosyl methionine (SAM) to purified core histone protein by EZH2 is quantitated after filtration to determine the activity of the core PRC2 complex in the presence and absence of compound.
Briefly, compounds of the present invention were solubilized in DMSO and a series of 10, three-fold serial dilutions were made for each compound in 15% DMSO. The initial starting concentration for the serial dilutions of each compound was 1.0 μM. Control samples lacking compound, EZH2 enzyme or various reaction components also were prepared and processed in parallel with compound test samples. SAH (S-(5-adenosyl)-L-homocysteine) was used as a positive control for assay validation.
An aliquot of each serial dilution of test compound was added to deep 384 well plate using Acoustic Technology instrument (Echo 550, LabCyte) containing reaction buffer (50 mM Tris-HCl (pH 8)), 0.01% Brij35, 1 mM EDTA, 1 mM DTT, 1 mM PMSF and 1% DMSO), 10 nM purified PRC2 complex and 0.05 mg/ml core histone H3 in a 5 μl volume. The reaction was mixed gently and then pre-incubated for 20 min at 30° C. The enzymatic reaction was initiated by adding 1 μM S-Adenosyl-L-[methyl-^3H]methionine and incubated for 1 hr at 30° C. After 1 hr, the reaction product was detected using a filter binding method and the amount of tritiated H3 core histone was quantitated using a scintillation counter. The IC50 value for each compound was determined from each 10-point dose-response curve using GraphPad Prism software and the results for compounds of present invention, including compounds of Formula (I) and Formula (II) are shown in Table 6. Key: A=<100 nM; B=>100 nM−<250 nM; and C=>250 nM.

[2] = tested on: PRC2-mediated histone H3 methylation in Pfeiffer cells (EZH2 A677G); assay: Tri-Methyl Histone H3 (Lys 27) sandwich ELISA in Pfeiffer cells; assay type: cell-based; settings: Homo sapiens, 96 hours incubation, H3K27me3 ELISA, read-out: IC50 (nM), Inhibition of EZH2-mediated Histone H3 Trimethylation
From the text: The Pfeiffer cell line was established from a […] from a patient having metastatic diffuse large B-cell lymphoma (DLBCL). This cell line expresses a mutant form of the EZH2 enzyme (A677G) that results in enhanced EZH2 activity leading to increased methylation of histone H3 Lys27. Increased trimethylation of histone H3 Lys27 is believed to be implicated in tumorgenesis and poor clinical prognosis in lymphomas (McCabe et al., (2012) Nature 492:108-112).
Inhibition of PRC2-mediated histone H3 methylation by compounds of Formula (I) was measured by ELISA using a Tri-Methyl Histone H3 (Lys 27) Sandwich ELISA Kit (Cell Signaling Tech #7866C) in accordance with the manufacturer's instructions. Briefly, Pfeiffer cells were cultured in RPMI medium supplemented with 10% fetal bovine serum and 1% penicillin and 1% streptomycin in 96 well culture plates at 37° C. to a density of 8000 cells/90 μl/well and the cells were harvested. A series of 3-fold serial dilutions of each test compound of Formula (I) were prepared in RPMI medium and added to the cells at final concentrations ranging from […] to 0.15 nM. The plates were incubated at 37° C. for 96 hours.
After incubation, the cells were pelleted by centrifugation in a pre-cooled 4° C. rotor at 1,100 rpm for 10 min and the supernatant was removed by aspiration. The cell pellet was resuspended in 55 μl of Lysis Buffer (0.4M HCl) and incubated on ice with periodic shaking for 30 minutes. The lysed cells were subjected to centrifugation at 4,200 rpm for 10 min at 4° C. and the supernatant containing acid-soluble proteins was collected and the remainder discarded. The acid-soluble proteins were brought to a neutral pH by the addition of 20 μl of Neutralization Buffer (1 M Sodium phosphate, dibasic (pH 12.5), 2.5 mM DTT and 1 mM PMSF) and the neutralized lysates were analyzed by ELISA.
A 65 μl aliquot of each cell lysate was added to a well of a microwell strip, the microwells were sealed using tape and incubated either at 37° C. for two hours or at 4° C. overnight. After incubation, the tape was removed at the microwells were washed four times using 200 μl of 1× Wash Buffer. To each washed microwell, a 100 μl aliquot of an anti-trimethyl histone H3 Lys27 Detection Antibody solution was added and the microwells were incubated at 37° C. for one hour. The Detection Antibody solution was removed by aspiration and the wells were washed four times each using 200 μl of 1× Wash Buffer.
A 100 μl aliquot of an HRP-linked secondary antibody was added to each well, the wells were sealed with tape and incubated at 37° C. for 30 min. The HRP-linked secondary antibody solution was removed by aspiration and the wells were washed four times using 200 μl of 1× Wash Buffer. A 100 μl aliquot of a TMB substrate was added to each well, the wells were sealed with tape and incubated at 37° C. for 10 min or 25° C. for 30 min. The reaction was stopped by the addition of 100 μl aliquot of a STOP solution and the plate was shaken briefly. The degree of histone H3 trimethylation was determined using a spectrophotometric readout by measuring the absorbance at 450 nm and then calculating the amount of trimethylated histone H3. A=≤100 nM; B=>100 nM−≤500 nM; C=>500 nM and N.D.=not determined.

[3] = tested on: Karpas 422 cells (EZH2 Y641N); assay: Karpas 422 cell viability (Cell Titre Glo); assay type: cell-based; settings: Homo sapiens, CTG viability, Day 4, Day 7 or Day 11 (time point not given), read-out: IC50 (nM), Inhibiting Proliferation of Cells Expressing an Activating Mutant Form of EZH2
Description: Karpas 422 cell line is a human B cell non-Hodgkin's lymphoma cell line established from a patient having DLBCL. This EZH2 heterozygotic cell line expresses a mutant form of EZH2 enzyme (Y641N) that increases histone H3 methylation and this mutation has been implicated in the tumorgenesis of lymphomas, such as DLBCL.
Karpas 422 cells (PHE cat no., 06101702) were cultured in RPMI medium supplemented with 20% fetal bovine serum and 1% penicillin/1% streptomycin and plated at a density of 1000 cells/90 μl/well in 96 well white assay plates. A dose response curve for compounds of the present invention was determined by adding a 10 μl aliquot of stock solutions of varying concentrations of compounds to the same medium in each well, over a concentration range of 10 μM using 3-fold dilutions to a final concentration of 1.5 nM. The plates were incubated at 37° C. for predetermined time periods, Day 4, Day 7, or Day 11, and the viability of the cells was measured using a CTG assay kit (Cell Titre Glo; Promega cat. no G7573) on Day 4 and Day 7 in accordance with the manufacturer's instructions.
For the viability assay for the Day 11 plates, the plates were subjected to centrifugation at 1100 rpm for five minutes on Day 7 and the supernatant was removed by aspiration. The cells were resuspended in 90 μl aliquot of the appropriate growth medium lacking the compound followed by addition of 10 μl of a 10× stock of the same compound at the same concentration. The viability of the Day 11 cells was measured using the CTG assay kit described above in accordance with the manufacturer's instructions. The IC50 values for each compound at each predetermined time point were calculated using Graph pad PRISM software and the results are shown in Table 8. A=≤250 nM; B=[…]−≤500 nM; C=>500 nM and N.D.=not determined.

Sequence of purified human, His-tagged PRC2 complex (Q15910 whole entry): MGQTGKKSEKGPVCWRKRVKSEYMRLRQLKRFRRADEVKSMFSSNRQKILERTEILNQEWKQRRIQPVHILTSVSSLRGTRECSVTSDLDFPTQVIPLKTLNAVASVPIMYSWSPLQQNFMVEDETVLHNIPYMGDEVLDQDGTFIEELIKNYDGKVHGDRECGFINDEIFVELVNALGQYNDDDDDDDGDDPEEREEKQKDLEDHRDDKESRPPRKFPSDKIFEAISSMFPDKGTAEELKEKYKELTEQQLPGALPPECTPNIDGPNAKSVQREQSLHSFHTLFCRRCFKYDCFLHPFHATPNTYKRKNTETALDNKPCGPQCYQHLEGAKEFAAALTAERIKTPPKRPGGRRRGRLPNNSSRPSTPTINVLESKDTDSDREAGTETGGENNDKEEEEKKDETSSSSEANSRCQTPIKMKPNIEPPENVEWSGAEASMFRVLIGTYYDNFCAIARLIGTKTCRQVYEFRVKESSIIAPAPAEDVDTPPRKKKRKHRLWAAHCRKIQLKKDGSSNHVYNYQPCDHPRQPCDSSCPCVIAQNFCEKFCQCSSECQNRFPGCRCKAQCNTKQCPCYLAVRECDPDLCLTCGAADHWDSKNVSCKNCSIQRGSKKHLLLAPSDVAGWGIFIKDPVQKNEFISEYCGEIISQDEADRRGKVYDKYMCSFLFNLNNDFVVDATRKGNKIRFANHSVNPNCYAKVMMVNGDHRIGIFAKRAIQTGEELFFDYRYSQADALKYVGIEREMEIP
Sequence of purified human, His-tagged PRC2 complex (O75530 whole entry): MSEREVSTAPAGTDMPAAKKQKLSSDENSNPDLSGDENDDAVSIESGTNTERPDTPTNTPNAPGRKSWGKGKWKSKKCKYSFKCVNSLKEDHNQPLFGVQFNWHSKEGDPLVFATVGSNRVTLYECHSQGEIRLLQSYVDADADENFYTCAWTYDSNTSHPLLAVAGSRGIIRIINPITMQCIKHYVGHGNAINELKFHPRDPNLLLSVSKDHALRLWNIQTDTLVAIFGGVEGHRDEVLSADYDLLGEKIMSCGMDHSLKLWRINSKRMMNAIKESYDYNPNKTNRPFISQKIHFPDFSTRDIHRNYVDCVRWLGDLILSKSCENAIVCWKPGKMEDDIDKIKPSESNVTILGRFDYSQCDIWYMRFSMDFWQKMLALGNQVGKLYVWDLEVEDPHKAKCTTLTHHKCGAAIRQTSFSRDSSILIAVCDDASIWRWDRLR
Sequence of purified human, His-tagged PRC2 complex (Q15022 whole entry partner): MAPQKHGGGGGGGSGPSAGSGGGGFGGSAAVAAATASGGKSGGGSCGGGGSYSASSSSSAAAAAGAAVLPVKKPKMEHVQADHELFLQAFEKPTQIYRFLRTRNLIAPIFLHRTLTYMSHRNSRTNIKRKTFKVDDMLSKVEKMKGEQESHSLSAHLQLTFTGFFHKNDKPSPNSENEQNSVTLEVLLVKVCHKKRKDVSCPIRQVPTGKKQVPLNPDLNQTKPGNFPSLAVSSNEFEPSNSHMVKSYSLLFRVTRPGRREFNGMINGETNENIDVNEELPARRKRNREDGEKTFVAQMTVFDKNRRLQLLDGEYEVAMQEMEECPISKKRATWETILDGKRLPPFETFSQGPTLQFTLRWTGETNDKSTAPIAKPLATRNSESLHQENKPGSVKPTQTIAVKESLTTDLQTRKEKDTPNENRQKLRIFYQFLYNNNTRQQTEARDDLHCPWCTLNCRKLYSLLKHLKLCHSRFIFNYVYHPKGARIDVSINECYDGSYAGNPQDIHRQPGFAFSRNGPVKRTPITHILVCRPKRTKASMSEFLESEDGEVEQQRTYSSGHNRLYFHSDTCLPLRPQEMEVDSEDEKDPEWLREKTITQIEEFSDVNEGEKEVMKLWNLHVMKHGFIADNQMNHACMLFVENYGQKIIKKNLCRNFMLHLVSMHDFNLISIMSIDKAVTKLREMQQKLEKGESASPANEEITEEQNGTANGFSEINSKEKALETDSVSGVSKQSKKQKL
Sequence of purified human, His-tagged PRC2 complex (Q6ZN18 whole entry partner): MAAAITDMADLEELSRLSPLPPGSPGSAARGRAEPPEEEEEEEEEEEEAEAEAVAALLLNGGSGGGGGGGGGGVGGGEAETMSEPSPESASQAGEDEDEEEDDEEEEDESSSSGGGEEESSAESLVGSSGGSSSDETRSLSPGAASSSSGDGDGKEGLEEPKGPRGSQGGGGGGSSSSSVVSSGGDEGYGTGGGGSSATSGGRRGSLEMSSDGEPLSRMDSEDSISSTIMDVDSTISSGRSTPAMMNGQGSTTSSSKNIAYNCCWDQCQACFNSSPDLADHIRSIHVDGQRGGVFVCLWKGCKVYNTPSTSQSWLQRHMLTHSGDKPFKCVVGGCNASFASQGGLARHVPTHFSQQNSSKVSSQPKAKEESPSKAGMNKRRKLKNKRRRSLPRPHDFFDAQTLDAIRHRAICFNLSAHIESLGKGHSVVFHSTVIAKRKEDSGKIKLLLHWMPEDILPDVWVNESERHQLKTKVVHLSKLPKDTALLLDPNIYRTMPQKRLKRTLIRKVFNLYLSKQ
Sequence of purified human, His-tagged PRC2 complex (Q09028 whole entry partner): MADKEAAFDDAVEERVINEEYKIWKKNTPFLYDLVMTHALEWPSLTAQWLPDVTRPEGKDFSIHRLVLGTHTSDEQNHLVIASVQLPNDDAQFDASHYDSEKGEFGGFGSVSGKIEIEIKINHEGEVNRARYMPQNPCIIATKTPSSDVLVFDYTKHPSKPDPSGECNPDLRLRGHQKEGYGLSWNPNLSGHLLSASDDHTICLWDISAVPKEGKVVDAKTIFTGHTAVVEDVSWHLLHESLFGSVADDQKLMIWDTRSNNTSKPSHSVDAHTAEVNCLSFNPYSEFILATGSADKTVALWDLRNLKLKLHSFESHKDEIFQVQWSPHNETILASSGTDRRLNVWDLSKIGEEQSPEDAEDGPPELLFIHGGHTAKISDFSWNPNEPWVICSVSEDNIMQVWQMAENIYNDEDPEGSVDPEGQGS

| IC50 [1] [nM] | IC50 [2] [nM] | IC50 [3] [nM] | Structure (SMILES) |
| --- | --- | --- | --- |
| > 250 | 100 to 500 | ≤ 250 | Cc1ncccc1-c1cnc(NCc2c(F)ccc3c2CCO3)c2c[nH]c(=O)cc12 [Example 36] |
| 100 to 250 | 100 to 500 | ≤ 250 | O=c1cc2c(-c3ccc(CN4CCCC4)cc3)cnc(NCc3c(F)ccc4c3CCO4)c2c[nH]1 [Example 37] |
| 100 to 250 | 100 to 500 | ≤ 250 | CN(C)Cc1ccc(-c2cnc(NCc3c(F)ccc4c3CCO4)c3c[nH]c(=O)cc23)cc1 [Example 38] |
| > 250 | > 500 | > 500 | Cn1nncc1-c1cnc(NCc2c(F)ccc3c2CCO3)c2c[nH]c(=O)cc12 [Example 39] |
| 100 to 250 | 100 to 500 | ≤ 250 | Cc1cc(S(C)(=O)=O)ccc1-c1cnc(NCc2c(F)ccc3c2CCO3)c2c[nH]c(=O)cc12 [Example 40] |
| 100 to 250 | 100 to 500 | 250 to 500 | Cc1cc(CN(C)C)ccc1-c1cnc(NCc2c(F)ccc3c2CCO3)c2c[nH]c(=O)cc12 [Example 41] |
| > 250 | > 500 | > 500 | Cc1cc(-c2cnc(NCc3c(F)ccc4c3CCO4)c3cnc(OC(C)C)cc23)n(C)n1 [Example 43] |
| > 250 | 100 to 500 | ≤ 250 | Cc1cc(-c2cnc(NCc3c(F)ccc4c3CCO4)c3cnc(OCCN(C)C)cc23)n(C)n1 [Example 44] |
| 100 to 250 | 100 to 500 | ≤ 250 | COCCOc1cc2c(-c3cc(C)nn3C)cnc(NCc3c(F)ccc4c3CCO4)c2cn1 [Example 45] |
| > 250 | 100 to 500 | ≤ 250 | CN(C)CCn1nccc1-c1cnc(NCc2c(F)ccc3c2CCO3)c2c[nH]c(=O)cc12 [Example 46, 5-(1-(2-(dimethylamino)ethyl)-1H-pyrazol-5-yl)-8-(((5-fluoro-2,3-dihydrobenzofuran-4-yl)methyl)amino)-2,7-naphthyridin-3(2H)-one] |
| < 100 | 100 to 500 | ≤ 250 | CN(C)C(=O)c1cc(-c2cnc(NCc3c(F)ccc4c3CCO4)c3c[nH]c(=O)cc23)n(C)n1 [Example 47, 5-(1-(((5-fluoro-2,3-dihydrobenzofuran-4-yl)methyl)amino)-6-oxo-6,7-dihydro-2,7-naphthyridin-4-yl)-N,N,1-trimethyl-1H-pyrazole-3-carboxamide] |
| < 100 | 100 to 500 | ≤ 250 | Cn1nc(C#N)cc1-c1cnc(NCc2c(F)ccc3c2CCO3)c2c[nH]c(=O)cc12 [Example 48] |
| 100 to 250 | > 500 | > 500 | Cc1cc(-c2cnc(NCc3c(F)ccc4c3CCO4)c3cnc(N(C)C)cc23)n(C)n1 [Example 49, 4-(1,3-dimethyl-1H-pyrazol-5-yl)-N^1-((5-fluoro-2,3-dihydrobenzofuran-4-yl)methyl)-N^6,N^6-dimethyl-2,7-naphthyridine-1,6-diamine] |
| > 250 | > 500 | > 500 | Cc1cc(-c2cnc(NCc3c(F)ccc4c3CCO4)c3cnc(N)cc23)n(C)n1 [Example 50, 4-(1,3-dimethyl-1H-pyrazol-5-yl)-N^1-((5-fluoro-2,3-dihydrobenzofuran-4-yl)methyl)-2,7-naphthyridine-1,6-diamine] |
| > 250 | 100 to 500 | ≤ 250 | Cc1cc(-c2cnc(NCc3c(F)ccc4c3CCO4)c3cccnc23)n(C)n1 [Example 51, 8-(1,3-dimethyl-1H-pyrazol-5-yl)-N-((5-fluoro-2,3-dihydrobenzofuran-4-yl)methyl)-1,6-naphthyridin-5-amine] |
| > 250 | > 500 | > 500 | COc1ccc2c(NCc3c(F)ccc4c3CCO4)ncc(-c3cc(C)nn3C)c2n1 [Example 52, 8-(1,3-dimethyl-1H-pyrazol-5-yl)-N-((5-fluoro-2,3-dihydrobenzofuran-4-yl)methyl)-2-methoxy-1,6-naphthyridin-5-amine] |
| > 250 | 100 to 500 | ≤ 250 | Cc1cc(-c2cnc(NCc3c(F)ccc4c3CCO4)c3ccc(=O)[nH]c23)n(C)n1 [Example 53] |
